From patent US4725591A, “β-lactamase inhibitory composition” (Takeda Chemical Industries, Ltd., priority 1980, dated 1988)

What was measured:
[1] = molecular target: T1, β-lactamase produced by Enterobacter cloacae IFO 12937 (Enterobacter cloacae, UniProt P05364); test: Inhibitor concentration required to inhibit β-lactamase (cephalosporinase) activity by 50%, micro-iodometric method; assay type: biochemical; conditions: Enterobacter cloacae IFO 12937 cephalosporinase; 0.05M phosphate buffer pH 7, 30° C., 10 minutes preincubation; cephalothin or ampicillin 0.1 mM; read-out: I50 (converted)
T1 construct: The β-lactamase produced by Enterobacter cloacae IFO 12937; endogenous in cells; host or cells: Enterobacter cloacae IFO 12937
Procedure: Determination of the inhibitor concentration required to inhibit the enzyme activity by 50%
The β-lactamase produced by Enterobacter cloacae IFO 12937 is used as a typical example of cephalosporinase, and that produced by Staphylococcus aureus 1840 as typical example of penicillinase. The β-lactamase in incubated is 0.05M phosphate buffer (pH 7) with an appropriate dilution of an inhibitor preparation at 30° C. for 10 minutes. Cephalothin or ampicillin is then added in an amount sufficient to produce a final concentration of 0.1 mM, and the enzymatic reaction is allowed to proceed for 10 minutes. The enzyme activity is determined by the micro-iodometric method [Journal of general Microbiology, vol. 33, page 121 (1963)]. Hereinafter, the inhibitor concentration required to inhibit the enzyme activity by 50% is expressed as I50. The I50 values for Enterobacter cloaceae are shown in Table 1, and the I50 values for Staphylococcus aureus in Table 2.

[2] = test system: Citrobacter freundii GN 1706; test: Synergy with Cefotiam, agar dilution MIC; assay type: cell-based; conditions: 18 hours; for MIC of Cefotiam with 1 μg/ml of Compound: inoculum 10^8 per ml; for MIC of Cefotiam alone: Trypticase soy agar, unit assumed
Procedure: (§1) The inoculum concentration is 10^8 per ml, and the medium is prepared by using Trypticase® soy agar (Becton Dickinson & Company, USA).

[3] = test system: Citrobacter freundii IFO 12681; test: Synergy with Cefotiam, agar dilution MIC; assay type: cell-based; conditions: 18 hours; for MIC of Cefotiam with 1 μg/ml of Compound: Table 3, 1 μg/ml test compound in agar, inoculum 10^8 per ml
Procedure: as §1

[4] = test system: Enterobacter cloacae TN 587; test: Synergy with Cefotiam, agar dilution MIC; assay type: cell-based; conditions: 18 hours; for MIC of Cefotiam with 1 μg/ml of Compound: Table 3, 1 μg/ml test compound in agar, inoculum 10^8 per ml
Procedure: as §1

[5] = test system: Proteus morganii IFO 3168; test: Synergy with Cefotiam, agar dilution MIC; assay type: cell-based; conditions: 18 hours; for MIC of Cefotiam with 1 μg/ml of Compound: Table 3, 1 μg/ml test compound in agar, inoculum 10^8 per ml
Procedure: as §1

[6] = test system: Proteus vulgaris GN 5297; test: Synergy with Cefotiam, agar dilution MIC; assay type: cell-based; conditions: 18 hours; for MIC of Cefotiam with 1 μg/ml of Compound: inoculum 10^8 per ml; for MIC of Cefotiam alone: Trypticase soy agar, unit assumed
Procedure: as §1

[7] = test system: Serratia marcescens IFO 12648; test: Synergy with Cefotiam, agar dilution MIC; assay type: cell-based; conditions: 18 hours; for MIC of Cefotiam with 1 μg/ml of Compound: Table 3, 1 μg/ml test compound in agar, inoculum 10^8 per ml
Procedure: as §1

[8] = test system: Citrobacter freundii TN 512; test: Synergy with Cefotiam, agar dilution MIC; assay type: cell-based; conditions: 18 hours; for MIC of Cefotiam with 1 μg/ml of Compound: Table 4, 1 μg/ml test compound in agar, inoculum 10^8 per ml
Procedure: as §1

[9] = test system: Enterobacter cloacae IFO 12937; test: Synergy with Cefotiam, agar dilution MIC; assay type: cell-based; conditions: 18 hours; for MIC of Cefotiam with 1 μg/ml of Compound: Table 4, 1 μg/ml test compound in agar, inoculum 10^8 per ml
Procedure: as §1

[10] = test system: Proteus morganii TN 387; test: Synergy with Cefotiam, agar dilution MIC; assay type: cell-based; conditions: 18 hours; for MIC of Cefotiam with 1 μg/ml of Compound: Table 4, 1 μg/ml test compound in agar, inoculum 10^8 per ml
Procedure: as §1

[11] = Table 3, 1 μg/ml test compound in agar
[12] = Table 3, inoculum 10^8 per ml, Trypticase soy agar, unit assumed
[13] = Table 4, inoculum 10^8 per ml, Trypticase soy agar, unit assumed
[14] = Table 4, 1 μg/ml test compound in agar

T1 sequence (P05364 21-381): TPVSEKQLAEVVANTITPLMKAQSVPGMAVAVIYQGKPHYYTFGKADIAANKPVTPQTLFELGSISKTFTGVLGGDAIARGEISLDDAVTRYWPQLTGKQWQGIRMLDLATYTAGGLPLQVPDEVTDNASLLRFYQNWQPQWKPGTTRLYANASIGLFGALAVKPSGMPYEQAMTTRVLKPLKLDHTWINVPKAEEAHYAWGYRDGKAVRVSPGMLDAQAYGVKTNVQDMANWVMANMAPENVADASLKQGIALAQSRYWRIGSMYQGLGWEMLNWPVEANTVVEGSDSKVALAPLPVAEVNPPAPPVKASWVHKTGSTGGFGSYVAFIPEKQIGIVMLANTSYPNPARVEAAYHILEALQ

Compound	IC50 [1]	MIC of Cefotiam with 1 μg/ml of Compound [2, 14]	MIC of Cefotiam with 1 μg/ml of Compound [8]	MIC of Cefotiam with 1 μg/ml of Compound [9]	MIC of Cefotiam with 1 μg/ml of Compound [10]	MIC of Cefotiam with 1 μg/ml of Compound [6, 14]	MIC of Cefotiam with 1 μg/ml of Compound [2, 11]	MIC of Cefotiam with 1 μg/ml of Compound [3]	MIC of Cefotiam with 1 μg/ml of Compound [4]	MIC of Cefotiam with 1 μg/ml of Compound [5]	MIC of Cefotiam with 1 μg/ml of Compound [6, 11]	MIC of Cefotiam with 1 μg/ml of Compound [7]	also measured
CC(C)ON=C(C(=O)NC1CN(S(=O)(=O)[O-])C1=O)c1csc(NS(C)(=O)=O)n1.[Na+] (centres unmarked)	4.4 nM	–	–	–	–	–	100	12.5	12.5	25	100	200	–
CC(C)ON=C(C(=O)NC1CN(S(=O)(=O)[O-])C1=O)c1csc(=N)n1S(C)(=O)=O.[Na+] (centres unmarked)	4.19 nM	–	–	–	–	–	50	6.25	3.13	50	100	200	–
CN(C)CCn1nnnc1SCC1=C(C(=O)O)N2C(=O)[C@@H](NC(=O)Cc3csc(N)n3)[C@H]2SC1 [Cefotiam, reference compound]	–	–	–	–	–	–	–	–	–	–	–	–	MIC of Cefotiam alone ([2]; Table 3, inoculum 10^8 per ml): 200 µg/mL; MIC of Cefotiam alone ([2]; Table 4, inoculum 10^8 per ml): 50 µg/mL; MIC of Cefotiam alone [3, 12]: 200 µg/mL; MIC of Cefotiam alone [8, 13]: 625 µg/mL; MIC of Cefotiam alone [9, 13]: 100 µg/mL; MIC of Cefotiam alone [4, 12]: > 400 µg/mL; MIC of Cefotiam alone [5, 12]: 400 µg/mL; MIC of Cefotiam alone [10, 13]: 200 µg/mL; MIC of Cefotiam alone ([6]; Table 3, inoculum 10^8 per ml): 100 µg/mL; MIC of Cefotiam alone ([6]; Table 4, inoculum 10^8 per ml): 400 µg/mL; MIC of Cefotiam alone [7, 12]: > 400 µg/mL
CC(C)(C)OC(=O)C(C)(C)ON=C(C(=O)NC1CN(S(=O)(=O)O)C1=O)c1csc(NC(c2ccccc2)(c2ccccc2)c2ccccc2)n1 (centres unmarked) [Compound 27, Sodium 3-[2-(2-tritylaminothiaozl-4-yl)-2-[(1-tert-butoxycarbonyl-1-methylethoxy)imino]acetamido]-2-oxoazetidine-1-sulfonate]	69.5 nM	3.13	0.39	0.39	< 0.2	< 0.2	–	–	–	–	–	–	–
CON=C(C(=O)NC1CN(S(=O)(=O)O)C1=O)c1csc(NS(=O)(=O)O)n1 (centres unmarked) [Compound 29]	163 nM	12.5	0.39	0.78	100	200	–	–	–	–	–	–	–

Continued, in another order:

IC50 [1]	MIC of Cefotiam with 1 μg/ml of Compound [2, 14]	MIC of Cefotiam with 1 μg/ml of Compound [8]	MIC of Cefotiam with 1 μg/ml of Compound [9]	MIC of Cefotiam with 1 μg/ml of Compound [10]	MIC of Cefotiam with 1 μg/ml of Compound [6, 14]	Compound	MIC of Cefotiam with 1 μg/ml of Compound [2, 11]	MIC of Cefotiam with 1 μg/ml of Compound [3]	MIC of Cefotiam with 1 μg/ml of Compound [4]	MIC of Cefotiam with 1 μg/ml of Compound [5]	MIC of Cefotiam with 1 μg/ml of Compound [6, 11]	MIC of Cefotiam with 1 μg/ml of Compound [7]	also measured
162 nM	3.13	0.39	0.39	< 0.2	100	Cc1onc(-c2c(Cl)cccc2Cl)c1C(=O)NC1CN(S(=O)(=O)O)C1=O (centres unmarked) [Compound 9]	–	–	–	–	–	–	–
4010 nM	25	< 0.2	0.2	25	25	CON=C(C(=O)NC1CN(S(=O)(=O)O)C1=O)c1csc(N)n1 (centres unmarked) [Compound 12]	–	–	–	–	–	–	–
2420 nM	–	–	–	–	–	CC(C)ON=C(C(=O)NC1CN(S(=O)(=O)O)C1=O)c1csc(NC(=O)CCl)n1 (centres unmarked) [Compound 28, Sodium 3-[2-(2-chloroacetamidothiazol-4-yl)-2-(1-methylethoxyimino)acetamido]-2-oxoazetidine-1-sulfonae]	50	50	50	100	100	200	–
